In patent US20030194719A1, “Tpst-assay for diagnosis of autism and related disorders” (priority 2000, published 2003):

Columns and labels:
[1] = system: Tyrosyl protein sulphotransferase (TPST); experiment: TPST activity assay in platelets from normal healthy blood donors (35S transfer from PAPS35 to EAY substrate); assay type: biochemical, human; settings: for TPST activity (0 μM = 100): Table 7; for TPST activity (0 μM = 100.0): Table 5
Procedure: The activity of sulphotransferases can be measured by monitoring the transfer of ^35S from the sulphate donor, PAPS^35, to the product, in this case the synthetic tyrosine substrate EAY. This assay uses platelets from control subjects (n=5) and those patients suffering from a particular disorder, selected from autism (n=14), irritable bowel syndrome (n=3) schizophrenia (gluten-sensitive)(n=4), food allergy (gluten, milk) (n=3) and depression (n=2).
Reaction mixtures were incubated for 50 minutes at 37° C. and reactions were stopped by barium acetate. Unreacted sulphate, proteins and nucleotides were precipitated by zinc sulphate and barium hydroxide. Within the reaction there is a positive and negative control. The positive control is termed 100%, and represents the total amount of radioactivity present in the hot PAPS^35 sample. The negative control is the “no-enzyme” reaction, this represents the amount of sulphate transferred to the product when no enzyme is present, i.e. the chemical reaction. The blank for the reaction is made up without PAPS^35 and without enzyme.
10 ml of whole blood was taken from patients and the blood cells removed. The remaining plasma was centrifuged at 8000 g for 5 mins to sediment the platelets. This platelet pellet was resuspended in 5 ml 10 mM phosphate buffered saline (PBS) containing 10 mM EDTA, recentrifuged at 2000 g at 4° C. for 30 min. […] The platelets were sonicated for 12×10 second bursts at 4° C. The platelet sonicates were stored in 1 ml portions at −70° C. prior to use.
Substrate: 10 μl EAY (300 μM; poly (Glu, Ala, Tyr) 6:3:1) was used in each test assay, to give a final concentration in the reaction of 20 μM. This solution was made up in MES reaction buffer.
Reaction mixtures were made up as in the table above. To begin the assay, platelet homogenate (20 μl) and PAPS^35 (20 μl) were added at 30-second intervals to a final volume of 150 μl. The reaction mixture was then incubated at 37° C. for 40 min. The reaction is stopped by the addition of 200 μl-barium acetate (0.1 M) and the tubes were vortexed and placed on ice for […].
Unreacted sulphate was then precipitated by the addition of 0.1 M zinc sulphate (200 μl) and 0.1 M barium hydroxide (200 μl). The tubes were vortexed and centrifuged at 6500 rpm for 3 min.
Repeat step 3. Supernatant (500 μl) was then added to scintillation fluid (3.5 ml) and S^35 was counted in a Phillips scintillation counter.
Various compounds were investigated, including fatty acids, flavonoids and amino acids. […] Compounds were tested at the concentrations shown and were dissolved in buffer where possible or ethanol if not.
In the Example shown in Table 6 and FIG. 6 compounds were all dissolved in DMSO and tested at 25 μM.

TPST = settings: PC12 cells; cited from earlier work
[2] = Table 6, 25 μM, dissolved in DMSO, human platelets
[3] = Table 2, 100 μM, normal human platelets
[4] = Example 2, concentrations as in Table 2, normal human platelets

Which results are given for `O=c1cc(-c2ccccc2)oc2ccccc12` [Flavone]?
Effect on TPST activity (in words) ([1]; Example 3, 25 μM, platelets): stimulation of TPST activity; % Control TPST Activity [1, 2]: 180%; TPST activity (0 μM = 100) ([1]; flavonoid 0.5 μM): 80.3; TPST activity (0 μM = 100) ([1]; flavonoid 1 μM): 96.4; TPST activity (0 μM = 100) ([1]; flavonoid 2.5 μM): 93.5; TPST activity (0 μM = 100) ([1]; flavonoid 5 μM): 102.3; TPST activity (0 μM = 100) ([1]; flavonoid 10 μM): 126; TPST activity (0 μM = 100) ([1]; flavonoid 25 μM): 172.8; TPST activity (0 μM = 100) ([1]; flavonoid 50 μM): 230.2; TPST activity (0 μM = 100) ([1]; flavonoid 100 μM): 307.3

For `CCCCC/C=C\C/C=C\C/C=C\CCCCC(=O)O` [GLA, gamma linolenic acid], which “TPST activity (0 μM = 100.0)” value ([1]; fatty acid 10 μM) is on record?
The value was 78.8.

What about the “TPST activity (0 μM = 100.0)” value ([1]; fatty acid 25 μM) of the same molecule?
The value was 72.6.

What about the “TPST activity (0 μM = 100.0)” value ([1]; fatty acid 50 μM) of the same molecule?
Its value is 71.3.

What about the “TPST activity (0 μM = 100.0)” value ([1]; fatty acid 100 μM) of the same molecule?
The value was 61.2.

For `O=c1c(-c2ccc(O)cc2)coc2cc(O)cc(O)c12` [Genistein], which “Effect on TPST activity (in words)” value ([1]; Example 2, 100 μM) is on record?
The value was “inhibitory effect on TPST activity”.

What about the “Effect on TPST activity (in words)” value ([1]; Example 3, 25 μM, platelets) of the same molecule?
The value was “stimulation of TPST activity”.

What about the “Effect on TPST activity (in words)” value ([1]; Example 3, 25 μM, platelets, listed as genistein) of the same molecule?
Its value is “TPST enhancing effect”.

And the “% Control TPST Activity” value [1, 3]?
Its value is 74%.

What about the “% Control TPST Activity” value [1, 2] of the same molecule?
The value was 117%.

And the “TPST activity (0 μM = 100)” value ([1]; flavonoid 2.5 μM)?
The value was 86.5.

What about the “TPST activity (0 μM = 100)” value ([1]; flavonoid 5 μM) of the same molecule?
The value was 83.4.

What about the “TPST activity (0 μM = 100)” value ([1]; flavonoid 10 μM) of the same molecule?
The value was 75.8.

What about the “TPST activity (0 μM = 100)” value ([1]; flavonoid 25 μM) of the same molecule?
Its value is 50.9.

What about the “TPST activity (0 μM = 100)” value ([1]; flavonoid 50 μM) of the same molecule?
The value was 62.

With `N[C@@H](CCC(=O)O)C(=O)O` [Glutamate] as the molecule, how does the “Effect on TPST activity (in words)” value [1, 4] read?
The value was “decreased activity”.

What about the “% Control TPST Activity” value [1, 3] of the same molecule?
The value was 67%.

What does the source list for `NC(=O)CC[C@H](N)C(=O)O` [Glutamine]?
Effect on TPST activity (in words) [1, 4]: increased activity; % Control TPST Activity [1, 3]: 125%

For `O=c1c(O)c(-c2ccc(O)cc2)oc2cc(O)cc(O)c12` [Kaempferol], which “TPST activity (0 μM = 100)” value ([1]; flavonoid 0.5 μM) is on record?
The value was 45.2.

And the “TPST activity (0 μM = 100)” value ([1]; flavonoid 1 μM)?
The value was 39.9.

What about the “TPST activity (0 μM = 100)” value ([1]; flavonoid 2.5 μM) of the same molecule?
Its value is 22.3.

What about the “TPST activity (0 μM = 100)” value ([1]; flavonoid 5 μM) of the same molecule?
The value was 21.4.

What about the “TPST activity (0 μM = 100)” value ([1]; flavonoid 10 μM) of the same molecule?
The value was 14.4.

What about the “TPST activity (0 μM = 100)” value ([1]; flavonoid 25 μM) of the same molecule?
Its value is 11.

And the “TPST activity (0 μM = 100)” value ([1]; flavonoid 50 μM)?
Its value is 7.3.

And the “TPST activity (0 μM = 100)” value ([1]; flavonoid 100 μM)?
Its value is 2.9.

With `CCCCC/C=C\C/C=C\CCCCCCCC(=O)O` [Linoleic Acid] as the molecule, how does the “% Control TPST Activity” value [1, 3] read?
The value was 113%.

Which “Effect on TPST activity” value (TPST) does the source give for `[Mn+2]` [Manganese] here?
Its value is “suppresses TPST activity”.

Which “Effect on TPST activity (in words)” value [1, 4] does the source give for `CCCCCCCC/C=C\CCCCCCCC(=O)O` [Oleic Acid] here?
The value was “slight stimulation of TPST activity”.

And the “% Control TPST Activity” value [1, 3]?
The value was 111%.

What about the “TPST activity (0 μM = 100.0)” value ([1]; fatty acid 0.5 μM) of the same molecule?
The value was 74.5.

What about the “TPST activity (0 μM = 100.0)” value ([1]; fatty acid 1 μM) of the same molecule?
The value was 61.5.

What about the “TPST activity (0 μM = 100.0)” value ([1]; fatty acid 2.5 μM) of the same molecule?
The value was 69.2.

What about the “TPST activity (0 μM = 100.0)” value ([1]; fatty acid 5 μM) of the same molecule?
Its value is 51.4.

What about the “TPST activity (0 μM = 100.0)” value ([1]; fatty acid 10 μM) of the same molecule?
The value was 60.5.

And the “TPST activity (0 μM = 100.0)” value ([1]; fatty acid 25 μM)?
Its value is 56.2.

What about the “TPST activity (0 μM = 100.0)” value ([1]; fatty acid 50 μM) of the same molecule?
The value was 54.3.

What about the “TPST activity (0 μM = 100.0)” value ([1]; fatty acid 100 μM) of the same molecule?
The value was 29.5.

For `CCCCC[C@H](O)/C=C/[C@H]1[C@H](O)CC(=O)[C@@H]1C/C=C\CCCC(=O)O` [PGE2, prostaglandin E2], which “Effect on TPST activity (in words)” value [1, 4] is on record?
The value was “stimulation of activity”.

And the “% Control TPST Activity” value [1, 3]?
Its value is 124%.

With `CCCCCC/C=C\CCCCCCCC(=O)O` [Palmitoleic] as the molecule, how does the “TPST activity (0 μM = 100.0)” value ([1]; fatty acid 10 μM) read?
The value was 99.5.

What about the “TPST activity (0 μM = 100.0)” value ([1]; fatty acid 25 μM) of the same molecule?
Its value is 95.2.

And the “TPST activity (0 μM = 100.0)” value ([1]; fatty acid 50 μM)?
The value was 93.5.

And the “TPST activity (0 μM = 100.0)” value ([1]; fatty acid 100 μM)?
The value was 81.4.

What does the source list for `N[C@@H](Cc1ccccc1)C(=O)O` [Phenylalanine]?
Effect on TPST activity (in words) [1, 4]: decreased TPST activity in a dose dependent fashion; % Control TPST Activity ([1]; Table 2, 50 μM, normal human platelets): 79%; % Control TPST Activity ([1]; Table 2, 1000 μM, normal human platelets): 40%

With `O=c1c(O)c(-c2ccc(O)c(O)c2)oc2cc(O)cc(O)c12` [Quercetin] as the molecule, how does the “% Control TPST Activity” value [1, 3] read?
The value was 3%.

What about the “% Control TPST Activity” value [1, 2] of the same molecule?
The value was 48%.

What about the “TPST activity (0 μM = 100)” value ([1]; flavonoid 0.5 μM) of the same molecule?
Its value is 45.8.

And the “TPST activity (0 μM = 100)” value ([1]; flavonoid 1 μM)?
Its value is 33.7.

And the “TPST activity (0 μM = 100)” value ([1]; flavonoid 2.5 μM)?
The value was 25.7.

And the “TPST activity (0 μM = 100)” value ([1]; flavonoid 5 μM)?
The value was 21.1.

What about the “TPST activity (0 μM = 100)” value ([1]; flavonoid 10 μM) of the same molecule?
The value was 9.5.

What about the “TPST activity (0 μM = 100)” value ([1]; flavonoid 25 μM) of the same molecule?
Its value is 5.

And the “TPST activity (0 μM = 100)” value ([1]; flavonoid 50 μM)?
Its value is 0.9.

And the “TPST activity (0 μM = 100)” value ([1]; flavonoid 100 μM)?
Its value is 0.

Which results are given for `O=C(O)CCC(=O)O` [Succinate]?
Effect on TPST activity (in words) [1, 4]: decreasing sulphation; % Control TPST Activity [1, 3]: 59%
